Data from US20090176841A1, “NOVEL 6-5 SYSTEM BICYCLIC HE[…] ITS PHAR[…]” (Sanwa Kagaku Kenkyusho Co., Ltd., priority 2006, published 2009).

Tests used:
[1] = biological target: T1, recombinant human TRβ (Homo sapiens, UniProt P10828); assay: biochemical; conditions: TR[…] (IC50, nM), displacement of 125I-T3 (0.16 nM)
T1 sequence (P10828 244-461): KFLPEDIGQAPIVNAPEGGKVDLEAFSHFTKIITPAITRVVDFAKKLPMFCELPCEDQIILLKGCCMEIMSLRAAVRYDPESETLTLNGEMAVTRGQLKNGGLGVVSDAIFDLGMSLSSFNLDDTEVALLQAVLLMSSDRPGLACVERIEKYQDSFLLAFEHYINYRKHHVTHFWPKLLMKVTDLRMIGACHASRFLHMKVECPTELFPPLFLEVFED
Description: (§1) Thyroid Hormone Receptor Binding Test
(§2) (1) Preparation of Fused Protein Having Ligand Binding Region of Thyroid Hormone Receptor
(§3) Human TRα and human TRβ ligand binding domains were expressed in Escherichia coli as a fused protein (recombinant human TRα or recombinant human TRβ) having TRα and TRβ ligand binding domains at a C-terminus of His-Patch Thioredoxin using the His-Patch Thioredoxin fusing protein expressing system (Invitrogen).
(§4) A nucleotide sequence of a region corresponding to the fused protein was confirmed by DNA sequence analysis.
(§5) Escherichia coli by which the fused protein had been subjected to expression inducement were collected by a centrifugation method, and ground using ultrasound to prepare a ground cell liquid containing the fused protein. The ground cell liquid was centrifuged at 15000 rpm for about 30 minutes, and a solution containing the fused protein from the supernatant using a nickel chelating column was obtained. An NAP-10 column was replaced with a binding solution (20 mM, Tris-HCl, 0.15 M NaCl, 8% Glycerol, 0.1% BSA, 1 mM EDTA, 10 mM 2-melcaptethanol). The resulting binding solution containing the fused protein was frozen and stored at −70° C. or lower.
(§6) (2) Binding Affinity for Thyroid Hormone Receptor
(§7) This binding solution (60 μL) was added to all wells of a 96-well plate (MILLIPORE MultiScreen-HV, Cat. No. MANVN4550, Lot. No. F4SN86613). […] 80 μL of SephadexG25 was added to each well of MultiScreen-HV (MILLIPORE, Cat. No. MANVN4550, Lot. No. F4SN86613), the binding solution was added to sufficiently swell, and this was centrifuged at 600×g for 1 minute to prepare a column of SephadexG25. […] Again, 25 μL untreated binding solution was overlaid on the SephadexG25 column, and this was immediately centrifuged at 600×g for 1 minute. […] As an amount of recombinant human TRα or recombinant human TRβ used in the present test, an amount by which proper radioactivity is obtained in a range where an addition amount of the receptor and an amount of the complex in the above test system, was used.
(§8) This was divided by the total complex amount to calculate a binding rate as the following equation:
(§9) Binding rate=remaining complex amount/total complex amount

[2] = biological target: T2, recombinant human TRα (Homo sapiens, UniProt P10827); assay: biochemical; conditions: TR[…] (IC50, nM), displacement of 125I-T3 (0.16 nM)
T2 sequence (P10827 190-410 isoform P10827-2): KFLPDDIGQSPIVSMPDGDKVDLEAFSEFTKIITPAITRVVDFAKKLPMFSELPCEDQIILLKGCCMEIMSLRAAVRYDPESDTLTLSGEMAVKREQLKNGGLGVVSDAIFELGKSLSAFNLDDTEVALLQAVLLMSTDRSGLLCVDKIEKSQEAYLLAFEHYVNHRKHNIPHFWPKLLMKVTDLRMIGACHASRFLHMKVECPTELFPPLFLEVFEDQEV
Description: as §1, §2, §3, §4, §5, §6, §7, §8, §9

| SMILES | IC50 [1] [nM] | IC50 [2] [nM] |
| --- | --- | --- |
| Cc1ccc(NC(=O)CC(=O)O)c2cc(C)n(Cc3ccc(O)c(C(O)c4ccc(F)cc4)c3)c12 (single isomer, unassigned; (+)) [Example 130, (+)-N-(1-{3-[(4-fluorophenyl)hydroxymethyl]-4-hydroxybenzyl}-2,7-dimethyl-1H-indol-4-yl)malonamic acid] | 150 | 5200 |
| Cc1ccc(NC(=O)CC(=O)O)c2cc(C)n(Cc3ccc(O)c(C(O)c4ccc(F)cc4)c3)c12 (single isomer, unassigned; (-)) [Example 131, (−)-N-(1-{3-[(4-fluorophenyl)hydroxymethyl]-4-hydroxybenzyl}-2,7-dimethyl-1H-indol-4-yl)malonamic acid] | 7.1 | 99 |
| CCOC(=O)C(=O)Nc1cccc2c1ccn2Cc1ccc(O)c(C(C)C)c1 [Example 1, Ethyl N-[1-(4-hydroxy-3-isopropylbenzyl)-1H-indol-4-yl]oxamate] | 220 | 1500 |
| CCOC(=O)C(=O)Nc1cccc2c1cc(C)n2Cc1ccc(O)c(C(C)C)c1 [Example 8] | 72 | 370 |
| CCOC(=O)C(=O)Nc1ccc(C)c2c1ccn2Cc1ccc(O)c(C(C)C)c1 [Example 15] | 60 | 490 |
| CCOC(=O)C(=O)Nc1cccc2c1c(C)c(C)n2Cc1ccc(O)c(C(C)C)c1 [Example 19] | 56 | 280 |
| CCOC(=O)C(=O)Nc1ccc(C)c2c1cc(C)n2Cc1ccc(O)c(C(C)C)c1 [Example 21] | 6.3 | 37 |
| CCOC(=O)CC(=O)Nc1ccc(C)c2c1cc(C(F)(F)F)n2Cc1ccc(O)c(C(C)C)c1 [Example 26] | 310 | 3400 |
| CCc1cc2c(NC(=O)Cc3nnn[nH]3)cccc2n1Cc1ccc(O)c(C(C)C)c1 [Example 41] | 650 | > 10000 |
| Cc1ccc(NC(=O)Cc2nnn[nH]2)c2ccn(Cc3ccc(O)c(C(C)C)c3)c12 [Example 42] | 150 | 8200 |
| Cc1ccc(NC(=O)Cc2nnn[nH]2)c2cc(C)n(Cc3ccc(O)c(C(C)C)c3)c12 [Example 43] | 8.5 | 450 |
| CCOC(=O)C(=O)Nc1ccc(C)c2c1ccn2Cc1ccc(O)c(C(O)c2ccc(F)cc2)c1 (stereo not drawn) [Example 56, Ethyl N-(1-{3-[(4-fluorophenyl)hydroxymethyl]-4-hydroxybenzyl}-7-methyl-1H-indol-4-yl)oxamate] | 84 | 480 |
| CCOC(=O)CC(=O)Nc1ccc(C)c2c1cc(C)n2Cc1ccc(O)c(C(O)c2ccc(F)cc2)c1 (stereo not drawn) [Example 57, Ethyl N-(1-{3-[(4-fluorophenyl)hydroxymethyl]-4-hydroxybenzyl}-2,7-dimethyl-1H-indol-4-yl)malonamate] | 24 | 3800 |
| CC(C)c1cc(Cn2ccc3c(NC(=O)C(=O)O)cccc32)ccc1O [Example 63, N-[1-(4-hydroxy-3-isopropylbenzyl)-1H-indol-4-yl]oxamic acid] | 170 | 1200 |
| Cc1ccc(NC(=O)CC(=O)O)c2cc(C)n(Cc3ccc(O)c(Br)c3)c12 [Example 65] | 470 | > 10000 |
| CC(C)c1cc(Cn2ccc3c(NC(=O)CC(=O)O)cccc32)ccc1O [Example 69] | 430 | > 10000 |
| Cc1cc2c(NC(=O)C(=O)O)cccc2n1Cc1ccc(O)c(C(C)C)c1 [Example 72] | 40 | 230 |
| Cc1cc2c(NC(=O)CC(=O)O)cccc2n1Cc1ccc(O)c(C(C)C)c1 [Example 73] | 210 | 5100 |
| Cc1cc2c(OCC(=O)O)cccc2n1Cc1ccc(O)c(C(C)C)c1 [Example 74] | 200 | 2700 |
| CCc1cc2c(NC(=O)CC(=O)O)cccc2n1Cc1ccc(O)c(C(C)C)c1 [Example 75] | 550 | > 10000 |
| CC(C)c1cc(Cn2c(C(F)(F)F)cc3c(NC(=O)CC(=O)O)cccc32)ccc1O [Example 76] | 67 | 610 |
| CC(C)c1cc(Cn2ccc3c(NC(=O)CC(=O)O)cc(Br)cc32)ccc1O [Example 77] | 570 | > 10000 |
| CC(C)c1cc(Cn2ccc3c(NC(=O)CC(=O)O)ccc(Cl)c32)ccc1O [Example 78] | 36 | 230 |
| Cc1ccc(NC(=O)C(=O)O)c2ccn(Cc3ccc(O)c(C(C)C)c3)c12 [Example 79] | 130 | 5200 |

| SMILES | IC50 [1] [nM] | IC50 [2] [nM] |
| --- | --- | --- |
| Cc1ccc(NCCC(=O)O)c2ccn(Cc3ccc(O)c(C(C)C)c3)c12 [Example 82] | 1100 | 1600 |
| Cc1c(C)n(Cc2ccc(O)c(C(C)C)c2)c2cccc(NC(=O)C(=O)O)c12 [Example 83] | 27 | 85 |
| Cc1ccc(NC(=O)C(=O)O)c2cc(C)n(Cc3ccc(O)c(C(C)C)c3)c12 [Example 85] | 3.1 | 24 |
| Cc1ccc(NC(=O)CC(=O)O)c2cc(C)n(Cc3ccc(O)c(C(C)C)c3)c12 [Example 86] | 16 | 670 |
| Cc1ccc(NC(=O)C(F)C(=O)O)c2cc(C)n(Cc3ccc(O)c(C(C)C)c3)c12 (stereo not drawn) [Example 88] | 13 | 120 |
| Cc1ccc(NC(=O)C(C)C(=O)O)c2cc(C)n(Cc3ccc(O)c(C(C)C)c3)c12 (stereo not drawn) [Example 89] | 120 | 870 |
| Cc1ccc(NC(=O)CCC(=O)O)c2cc(C)n(Cc3ccc(O)c(C(C)C)c3)c12 [Example 93] | 260 | 650 |
| Cc1ccc(NC(=O)CC(=O)O)c2cc(C(F)(F)F)n(Cc3ccc(O)c(C(C)C)c3)c12 [Example 95] | 5 | 98 |
| Cc1ccc(NC(=O)CC(=O)O)c2cc(C)n(Cc3ccc(O)c(Cc4ccc(F)cc4)c3)c12 [Example 100] | 28 | 600 |
| Cc1ccc(NC(=O)C(=O)O)c2cc(C)n(Cc3ccc(O)c(CCc4ccccc4)c3)c12 [Example 101] | 390 | 2200 |
| Cc1cc(Cn2ccc3c(NC(=O)C(=O)O)ccc(C)c32)cc(C)c1O [Example 103] | 860 | 3200 |
| CC(C)c1cc(Cn2ccc3cc(NC(=O)C(=O)O)ccc32)ccc1O [Example 105] | 260 | 970 |
| Cc1cc(NC(=O)C(=O)O)cc2ccn(Cc3ccc(O)c(C(C)C)c3)c12 [Example 108] | 54 | 190 |
| Cc1cc(NC(=O)CC(=O)O)cc2ccn(Cc3ccc(O)c(C(C)C)c3)c12 [Example 109] | 600 | > 10000 |
| CC(C)c1cc(Cn2ncc3c(NC(=O)C(=O)O)cccc32)ccc1O [Example 111] | 1400 | > 10000 |
| CC(C)c1cc(Cc2c[nH]c3c(NC(=O)CC(=O)O)cccc23)ccc1O [Example 113] | 320 | > 10000 |
| Cc1ccc(NC(=O)C(=O)O)c2cc(C)n(Cc3ccc(O)c(C(F)(F)F)c3)c12 [Example 114] | 49 | 180 |
| Cc1ccc(NC(=O)CC(=O)O)c2cc(C)n(Cc3ccc(O)c4ccccc34)c12 [Example 115] | 130 | 3600 |
| CCCc1cc(Cn2c(C)cc3c(NC(=O)C(=O)O)ccc(C)c32)ccc1O [Example 116] | 9.2 | 52 |
| CCCc1cc(Cn2c(C)cc3c(NC(=O)CC(=O)O)ccc(C)c32)ccc1O [Example 117] | 36 | 640 |
| CCc1cc2c(NC(=O)C(=O)O)cccc2n1Cc1ccc(O)c(C(C)C)c1 [Example 118] | 91 | 280 |
| CC(C)c1cc(Cn2c(C(F)(F)F)cc3c(NC(=O)C(=O)O)cccc32)ccc1O [Example 119] | 15 | 57 |
| CC(C)c1cc(Cn2ccc3c(NC(=O)C(=O)O)cc(Br)cc32)ccc1O [Example 120] | 63 | 380 |
| CCC(C)c1cc(Cn2c(C)cc3c(NC(=O)C(=O)O)ccc(C)c32)ccc1O (stereo not drawn) [Example 122] | 2.6 | 24 |
